According to the OligoGym collection:
HELM strings list units from the 5' end as sugar, base in round brackets, then linkage (d deoxyribose, r ribose, m 2'-O-methyl, p phosphodiester). Strings are as the collection lists them, not checked against the first reports. ss, as = sense and antisense strand; [fl2r] = 2'-fluoro

Details: siRNA
Further: test system not given here.

Substance	target mRNA knockdown
RNA1{r(A)p.r(G)p.r(A)p.r(A)p.r(A)p.r(C)p.r(G)p.r(C)p.r(A)p.r(G)p.m(U)p.r(A)p.r(A)p.r(U)p.r(C)p.r(C)p.r(G)p.r(G)p.r(A)p.r(T)p.r(T)}|RNA2{r(U)p.r(C)p.r(C)p.r(G)p.r(G)p.r(A)p.r(U)p.r(U)p.r(A)p.r(C)p.m(U)p.r(G)p.r(C)p.r(G)p.r(U)p.r(U)p.r(U)p.r(C)p.r(U)p.r(T)p.r(T)}$$$RNA1{StrandType:ss}|RNA2{StrandType:as}$	82%
RNA1{r(A)p.r(G)p.r(A)p.r(A)p.r(G)p.[fl2r](U)p.r(A)p.r(C)p.[fl2r](C)p.r(A)p.r(G)p.r(G)p.r(A)p.r(G)p.r(G)p.r(C)p.r(G)p.r(U)p.r(U)p.r(T)p.r(T)}|RNA2{r(A)p.r(A)p.r(C)p.r(G)p.r(C)p.r(C)p.r(U)p.r(C)p.r(C)p.[fl2r](U)p.r(G)p.r(G)p.[fl2r](U)p.r(A)p.r(C)p.r(U)p.r(U)p.r(C)p.r(U)p.r(T)p.r(T)}$$$RNA1{StrandType:ss}|RNA2{StrandType:as}$	57%
RNA1{r(A)p.r(G)p.r(A)p.r(A)p.r(G)p.[fl2r](U)p.r(A)p.r(C)p.r(C)p.r(A)p.r(G)p.r(G)p.r(A)p.r(G)p.r(G)p.r(C)p.r(G)p.r(U)p.r(U)p.r(T)p.r(T)}|RNA2{r(A)p.r(A)p.r(C)p.r(G)p.r(C)p.r(C)p.r(U)p.r(C)p.r(C)p.[fl2r](U)p.r(G)p.r(G)p.r(U)p.r(A)p.r(C)p.r(U)p.r(U)p.r(C)p.r(U)p.r(T)p.r(T)}$$$RNA1{StrandType:ss}|RNA2{StrandType:as}$	60%
RNA1{r(A)p.r(G)p.r(A)p.r(A)p.r(G)p.m(U)p.r(A)p.r(C)p.m(C)p.r(A)p.r(G)p.r(G)p.r(A)p.r(G)p.m(G)p.r(C)p.r(G)p.r(U)p.r(U)p.r(T)p.r(T)}|RNA2{r(A)p.r(A)p.r(C)p.r(G)p.r(C)p.r(C)p.r(U)p.r(C)p.r(C)p.m(U)p.r(G)p.r(G)p.m(U)p.r(A)p.r(C)p.r(U)p.r(U)p.r(C)p.r(U)p.r(T)p.r(T)}$$$RNA1{StrandType:ss}|RNA2{StrandType:as}$	68%
RNA1{r(A)p.r(G)p.r(A)p.r(A)p.r(G)p.m(U)p.r(A)p.r(C)p.r(C)p.r(A)p.r(G)p.r(G)p.r(A)p.r(G)p.r(G)p.r(C)p.r(G)p.r(U)p.r(U)p.r(T)p.r(T)}|RNA2{r(A)p.r(A)p.r(C)p.r(G)p.r(C)p.r(C)p.r(U)p.r(C)p.r(C)p.r(U)p.r(G)p.r(G)p.m(U)p.r(A)p.r(C)p.r(U)p.r(U)p.r(C)p.r(U)p.r(T)p.r(T)}$$$RNA1{StrandType:ss}|RNA2{StrandType:as}$	69%
RNA1{r(A)p.r(G)p.r(A)p.r(A)p.r(G)p.r(G)p.r(A)p.m(C)p.m(U)p.r(A)p.m(C)p.m(U)p.r(A)p.r(A)p.m(C)p.m(C)p.m(U)p.m(C)p.m(C)p.r(T)p.r(T)}|RNA2{r(G)p.r(G)p.r(A)p.r(G)p.r(G)p.r(U)p.r(U)p.r(A)p.r(G)p.r(U)p.r(A)p.r(G)p.r(U)p.r(C)p.r(C)p.r(U)p.r(U)p.r(C)p.r(U)p.r(T)p.r(T)}$$$RNA1{StrandType:ss}|RNA2{StrandType:as}$	80%
RNA1{r(A)p.r(G)p.r(A)p.r(A)p.r(G)p.r(G)p.r(A)p.r(C)p.m(U)p.r(A)p.r(C)p.m(U)p.r(A)p.r(A)p.r(C)p.r(C)p.m(U)p.r(C)p.r(C)p.r(T)p.r(T)}|RNA2{r(G)p.r(G)p.r(A)p.r(G)p.r(G)p.m(U)p.m(U)p.r(A)p.r(G)p.m(U)p.r(A)p.r(G)p.m(U)p.r(C)p.r(C)p.m(U)p.m(U)p.r(C)p.m(U)p.r(T)p.r(T)}$$$RNA1{StrandType:ss}|RNA2{StrandType:as}$	49%
RNA1{r(A)p.r(G)p.r(A)p.r(A)p.r(G)p.r(G)p.r(A)p.r(C)p.m(U)p.r(A)p.r(C)p.m(U)p.r(A)p.r(A)p.r(C)p.r(C)p.r(U)p.r(C)p.r(C)p.r(T)p.r(T)}|RNA2{r(G)p.r(G)p.r(A)p.r(G)p.r(G)p.r(U)p.r(U)p.r(A)p.r(G)p.m(U)p.r(A)p.r(G)p.r(U)p.r(C)p.r(C)p.r(U)p.r(U)p.r(C)p.r(U)p.r(T)p.r(T)}$$$RNA1{StrandType:ss}|RNA2{StrandType:as}$	81%
RNA1{r(A)p.r(G)p.r(A)p.r(C)p.[fl2r](U)p.r(A)p.r(A)p.r(G)p.r(C)p.r(C)p.[fl2r](C)p.r(A)p.r(A)p.r(A)p.r(A)p.r(G)p.r(G)p.r(G)p.r(C)p.r(T)p.r(T)}|RNA2{r(G)p.r(C)p.r(C)p.r(C)p.r(U)p.r(U)p.r(U)p.[fl2r](U)p.r(G)p.r(G)p.r(G)p.r(C)p.r(U)p.[fl2r](U)p.r(A)p.r(G)p.r(U)p.r(C)p.r(U)p.r(T)p.r(T)}$$$RNA1{StrandType:ss}|RNA2{StrandType:as}$	45%
RNA1{r(A)p.r(G)p.r(A)p.r(C)p.[fl2r](U)p.r(A)p.r(A)p.r(G)p.r(C)p.r(C)p.r(C)p.r(A)p.r(A)p.r(A)p.r(A)p.r(G)p.r(G)p.r(G)p.r(C)p.r(T)p.r(T)}|RNA2{r(G)p.r(C)p.r(C)p.r(C)p.r(U)p.r(U)p.r(U)p.r(U)p.r(G)p.r(G)p.r(G)p.r(C)p.r(U)p.[fl2r](U)p.r(A)p.r(G)p.r(U)p.r(C)p.r(U)p.r(T)p.r(T)}$$$RNA1{StrandType:ss}|RNA2{StrandType:as}$	47%
RNA1{r(A)p.r(G)p.r(A)p.r(G)p.r(A)p.r(A)p.r(G)p.r(G)p.r(G)p.[fl2r](C)p.r(G)p.r(U)p.r(C)p.r(U)p.r(C)p.[fl2r](U)p.r(A)p.[fl2r](C)p.r(A)p.r(T)p.r(T)}|RNA2{[fl2r](U)p.r(G)p.[fl2r](U)p.r(A)p.r(G)p.r(A)p.r(G)p.r(A)p.r(C)p.r(G)p.r(C)p.r(C)p.r(C)p.r(U)p.r(U)p.r(C)p.r(U)p.r(C)p.r(U)p.r(T)p.r(T)}$$$RNA1{StrandType:ss}|RNA2{StrandType:as}$	71%
RNA1{r(A)p.r(G)p.r(A)p.r(G)p.r(A)p.r(A)p.r(G)p.r(G)p.r(G)p.r(C)p.r(G)p.r(U)p.r(C)p.r(U)p.r(C)p.r(U)p.[fl2r](A)p.r(C)p.r(A)p.r(T)p.r(T)}|RNA2{r(U)p.r(G)p.[fl2r](U)p.r(A)p.r(G)p.r(A)p.r(G)p.r(A)p.r(C)p.r(G)p.r(C)p.r(C)p.r(C)p.r(U)p.r(U)p.r(C)p.r(U)p.r(C)p.r(U)p.r(T)p.r(T)}$$$RNA1{StrandType:ss}|RNA2{StrandType:as}$	69%
RNA1{r(A)p.r(G)p.r(A)p.r(G)p.r(A)p.r(G)p.r(G)p.[fl2r](U)p.r(G)p.r(G)p.r(A)p.r(G)p.r(G)p.[fl2r](U)p.r(A)p.r(U)p.r(C)p.[fl2r](U)p.r(C)p.r(T)p.r(T)}|RNA2{r(G)p.r(A)p.r(G)p.r(A)p.[fl2r](U)p.r(A)p.r(C)p.r(C)p.r(U)p.r(C)p.[fl2r](C)p.[fl2r](A)p.r(C)p.r(C)p.r(U)p.r(C)p.r(U)p.r(C)p.r(U)p.r(T)p.r(T)}$$$RNA1{StrandType:ss}|RNA2{StrandType:as}$	85%
RNA1{r(A)p.r(G)p.r(A)p.r(G)p.r(A)p.r(G)p.r(G)p.[fl2r](U)p.r(G)p.r(G)p.r(A)p.r(G)p.r(G)p.r(U)p.r(A)p.r(U)p.r(C)p.r(U)p.r(C)p.r(T)p.r(T)}|RNA2{r(G)p.r(A)p.r(G)p.r(A)p.[fl2r](U)p.r(A)p.r(C)p.r(C)p.r(U)p.r(C)p.r(C)p.r(A)p.r(C)p.r(C)p.r(U)p.r(C)p.r(U)p.r(C)p.r(U)p.r(T)p.r(T)}$$$RNA1{StrandType:ss}|RNA2{StrandType:as}$	88%
RNA1{r(A)p.r(G)p.r(A)p.r(G)p.r(A)p.r(G)p.r(G)p.r(U)p.r(G)p.r(G)p.r(A)p.r(G)p.r(G)p.m(U)p.r(A)p.r(U)p.r(C)p.r(U)p.r(C)p.r(T)p.r(T)}|RNA2{r(G)p.r(A)p.r(G)p.r(A)p.m(U)p.r(A)p.r(C)p.r(C)p.r(U)p.r(C)p.r(C)p.r(A)p.r(C)p.r(C)p.r(U)p.r(C)p.r(U)p.r(C)p.r(U)p.r(T)p.r(T)}$$$RNA1{StrandType:ss}|RNA2{StrandType:as}$	90%
RNA1{r(A)p.r(G)p.r(A)p.r(G)p.r(G)p.r(A)p.r(C)p.r(C)p.m(U)p.r(A)p.r(G)p.r(A)p.r(A)p.r(G)p.r(G)p.r(C)p.r(G)p.r(G)p.r(C)p.r(T)p.r(T)}|RNA2{r(G)p.r(C)p.r(C)p.r(G)p.r(C)p.r(C)p.m(U)p.m(U)p.r(C)p.m(U)p.r(A)p.r(G)p.r(G)p.m(U)p.r(C)p.r(C)p.m(U)p.r(C)p.m(U)p.r(T)p.r(T)}$$$RNA1{StrandType:ss}|RNA2{StrandType:as}$	72%
RNA1{r(A)p.r(G)p.r(A)p.r(G)p.r(G)p.r(A)p.r(C)p.r(C)p.m(U)p.r(A)p.r(G)p.r(A)p.r(A)p.r(G)p.r(G)p.r(C)p.r(G)p.r(G)p.r(C)p.r(T)p.r(T)}|RNA2{r(G)p.r(C)p.r(C)p.r(G)p.r(C)p.r(C)p.r(U)p.r(U)p.r(C)p.m(U)p.r(A)p.r(G)p.r(G)p.r(U)p.r(C)p.r(C)p.r(U)p.r(C)p.r(U)p.r(T)p.r(T)}$$$RNA1{StrandType:ss}|RNA2{StrandType:as}$	89%
RNA1{r(A)p.r(G)p.r(A)p.r(G)p.r(G)p.r(A)p.r(C)p.r(C)p.r(U)p.m(A)p.r(G)p.r(A)p.r(A)p.r(G)p.r(G)p.r(C)p.r(G)p.r(G)p.r(C)p.r(T)p.r(T)}|RNA2{r(G)p.r(C)p.r(C)p.r(G)p.r(C)p.r(C)p.r(U)p.r(U)p.r(C)p.r(U)p.r(A)p.r(G)p.r(G)p.r(U)p.r(C)p.r(C)p.r(U)p.r(C)p.r(U)p.r(T)p.r(T)}$$$RNA1{StrandType:ss}|RNA2{StrandType:as}$	92%
RNA1{r(A)p.r(G)p.r(A)p.r(G)p.r(U)p.m(U)p.r(G)p.r(G)p.r(G)p.r(A)p.r(U)p.m(U)p.r(A)p.r(G)p.r(G)p.r(G)p.r(C)p.r(U)p.r(U)p.r(T)p.r(T)}|RNA2{r(A)p.r(A)p.r(G)p.r(C)p.r(C)p.r(C)p.m(U)p.r(A)p.r(A)p.r(U)p.r(C)p.r(C)p.m(C)p.r(A)p.r(A)p.r(C)p.r(U)p.r(C)p.r(U)p.r(T)p.r(T)}$$$RNA1{StrandType:ss}|RNA2{StrandType:as}$	68%
RNA1{r(A)p.r(G)p.r(A)p.r(G)p.r(U)p.r(U)p.r(G)p.r(G)p.r(G)p.r(A)p.r(U)p.r(U)p.r(A)p.r(G)p.r(G)p.r(G)p.r(C)p.r(U)p.r(U)p.r(T)p.r(T)}|RNA2{m(A)p.r(A)p.m(G)p.r(C)p.m(C)p.r(C)p.m(U)p.r(A)p.m(A)p.r(U)p.m(C)p.r(C)p.m(C)p.r(A)p.m(A)p.r(C)p.m(U)p.r(C)p.m(U)p.r(T)p.r(T)}$$$RNA1{StrandType:ss}|RNA2{StrandType:as}$	45%
